Source: US6590140B1, “Metal-regulated transporters and uses therefor” (Trustees of Dartmouth College, priority 1996, dated 2003)

Target: T1, IRT1 (Arabidopsis thaliana, UniProt Q38856)
T1 construct: contain a single 1017 bp open reading frame capable of encoding a polypeptide of 339 amino acids; expressed in transfected cells; host or cells: S. cerevisiae fet3 fet4 strain DEY1453 carrying pIRT-1 (pFL61 library vector, phosphoglycerate kinase promoter)
T1 sequence (Q38856 9-347 limits assumed): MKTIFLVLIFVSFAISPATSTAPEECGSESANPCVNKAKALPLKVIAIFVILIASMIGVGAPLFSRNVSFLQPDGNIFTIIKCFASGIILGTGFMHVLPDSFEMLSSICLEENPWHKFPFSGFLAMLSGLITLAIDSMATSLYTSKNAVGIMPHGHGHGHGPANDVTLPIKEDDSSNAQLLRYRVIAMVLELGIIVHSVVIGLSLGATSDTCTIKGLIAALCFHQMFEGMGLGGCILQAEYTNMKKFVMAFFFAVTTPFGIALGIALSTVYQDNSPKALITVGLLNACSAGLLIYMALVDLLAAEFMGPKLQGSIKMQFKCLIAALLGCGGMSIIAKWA
Test: 55Fe uptake in fet3 fet4 yeast expressing IRT1
Assay type: cell-based
Details: for effect on the rate of iron uptake by IRT1: 10 μM metal, 10 times the radiolabeled iron, Fe(II) with 1 mM ascorbate
Description: Iron uptake assays using ^55FeCl3 (Amersham, Arlington Heights, Ill.) were performed as described (Eide, D. et al. (1992) J. Biol. Chem. 267: 20774-20781) except that MGN (10 mM Mes/2% glucose/1 mM nitrilotriacetic acid, pH 6.1) was used for the assay buffer. Where noted, 1 mM sodium ascorbate was added to reduce Fe(III) to Fe(II). Stock solutions of the chloride salt of each metal (except for iron) were prepared in water at a concentration of 100 mM and diluted into MGN to a final concentration of 10 μM before addition of the cells. The ^56FeCl3 stock was 50 mM prepared in 0.1 M HCl. The statistical significance of differences in values relative to controls was determined using STATVIEW software (Abacus Concepts, Berkeley, Calif.). Data was subjected to one-way analysis of variance (ANOVA) followed by a Scheffe's test.
To determine if IRT1 encodes an iron transporter, ^55Fe uptake rates were examined in a fet3 fet4 strain expressing IRT1. Little or no uptake was detected at 0° C. for either IRT1-expressing or untransformed control cells (FIG. 2A). The fet3 fet4 mutant strain DEY1453 (circles) and DEY1453 transformed with pIRT-1 (squares) were grown to exponential phase in SD glucose and assayed for iron uptake with ^55Fe. (A) Time- and temperature-dependence of iron accumulation assayed in MGN with 1 mM ascorbate and 5 μM ^55FeCl3 assayed at 30° C. (open symbols) or 0° C. (solid symbols). The dashed line marked with open triangles represents the IRT1-dependent accumulation, i.e., the accumulation of iron by the untransformed strain at 30° C. subtracted from the accumulation of the pIRT-1-bearing strain at 30° C. […] The IRT1-dependent rate was ≈3-fold higher than the control uptake rate. No increased uptake was apparent in strains bearing either of two randomly selected clones from the library, indicating the dependence of these uptake effects on expression of IRT1. The iron uptake activity dependent on IRT1 expression was also concentration-dependent and saturable (FIG. 2B). The same strains as in A were assayed for iron uptake rates for 10 min over a range of concentrations. The dashed lines marked with open triangles represents the IRT1-dependent uptake rate, i.e., background uptake rate of the untransformed strain subtracted from the corresponding rate of the pIRT-1-bearing strains. (Inset) Eadie-Hofstee plot of the IRT1-dependent uptake data. Each point represents the mean of three experiments each performed in duplicate. The standard deviation within each experiment was less that 20% of the corresponding mean.
The experiments described above were conducted with iron supplied as Fe(II), i.e., in the presence of ascorbate, an agent capable of reducing Fe(III) to Fe(II). To determine if Fe(II) is the preferred substrate over Fe(III), assays were carried out in the absence of ascorbate where iron is supplied to the cells as Fe(III). […] The fet3 fet4 mutant strain DEY1453 and DEY1453 transformed with pIRT-1 were grown to exponential phase is SD glucose and assayed for iron uptake with 1 μM FeCl3 in MGN for 10 min. The values shown are the IRT1-dependent rates, i.e., the untransformed strain control values were subtracted from the DEY1453 pIRT-1 values and represent the means of four replicates. The asterisks indicate significant of differences from the control values (P<0.05). Assays were performed in the absence [Fe(III)] or presence [Fe(II)] of 1 mM ascorbate. […] Although yeast are capable of reducing Fe(III) to Fe(II) through the action of plasma membrane Fe(III) reductases, this rate of cell-mediated reduction is slower than reduction by ascorbate and therefore may be rate-limiting for IRT1-dependent uptake. To assess if metals other than iron are potential substrates for IRT1, several transition metals were tested for their ability to inhibit accumulation of iron in IRT1-expressing cells (FIG. 3B). Assays were conducted in the absence (−) or presence of 10 μM metal. […]

| SMILES | inhibition of IRT1-mediated Fe(II) uptake in yeast (summary statement) | effect on the rate of iron uptake by IRT1 (10 min) | further results |
| --- | --- | --- | --- |
| [Cl-].[Cl-].[Co+2] [Co] | inhibitors of IRT1-mediated Fe(II) uptake | no significant effect | – |
| [Cl][Cu][Cl] [Cu] | – | no significant effect | – |
| [Fe+2] [Fe(II)] | – | potent inhibitors | IRT1-dependent uptake rate relative to control uptake rate (5 μM 55FeCl3, 1 mM ascorbate, 30° C., first 10 min): ≈ 3 fold; Vmax of IRT1-mediated iron uptake (iron supplied as Fe(II) (1 mM ascorbate), 10 min, DEY1453 pIRT-1 minus untransformed strain): 1.9±0.4 pmol per min per 10^6 cells; Km (iron supplied as Fe(II) (1 mM ascorbate), 10 min, DEY1453 pIRT-1 minus untransformed strain, read-out: apparent Km of IRT1-mediated iron uptake): 6 ± 1 µM |
| [Cl][Fe]([Cl])[Cl] [Fe(III)] | – | – | iron uptake rate in the absence of ascorbate relative to rate with ascorbate (1 μM FeCl3 in MGN, 10 min, iron supplied as Fe(III)): ≈ 10% |
| [Cl][Mn][Cl] [Mn] | inhibitors of IRT1-mediated Fe(II) uptake | no significant effect | – |
| [Cl][Ni][Cl] [Ni] | – | no significant effect | – |
| [Zn+2] [zinc] | inhibitors of IRT1-mediated Fe(II) uptake | no significant effect | – |
